Source: PMC13184981, “Discovery and Development of a Potent LIMK2 Isoform-Specific Degrader” (ACS Chemical Biology, 2026)
Each block holds one molecule with its values, some of them ahead of it.

Key:
LIMK2 [1] = biological target: T1, LIMK2 (Homo sapiens, UniProt P53671); assay: Western blot of endogenous LIMK2 in HuCCT1 cells; assay type: cell-based; details: HuCCT1, 6 h treatment
Experimental: HuCCT1 cell line was cultured in Roswell Park Memorial Institute (RPMI) 1640 medium supplemented with GlutaMAX, 10% fetal bovine serum (FBS), and 1% penicillin/streptomycin. The cell line was maintained in an incubator with 5% CO2 at 37 °C. For the treatment, 3 × 10^5 cells were plated and treated with the compounds and DMSO as the control for 6 h. The cells were then lysed using RIPA buffer (50 mM Tris-HCl pH 7.4, 150 mM NaCl, 1% Triton X-100, 1% NaDOC, 0.1% SDS, 1 mM EDTA), freshly supplemented with protease and phosphatase inhibitor cocktails (Sigma-Aldrich, Darmstadt, Germany). After 1 h incubation on ice, the lysates were centrifuged for 30 min at […], and the protein-containing supernatant was collected. The protein concentrations were determined using Protein Assay Dye Reagent Concentrate (Bradford, Bio-Rad, Hercules, CA, USA) and Pre-Diluted Protein Assay Standards: Bovine Serum Albumin (BSA) Set (Thermo Fisher Scientific, Darmstadt, Germany). Then, equal amounts of protein was mixed with Roti-Load 1 dye (Carl Roth, Karlsruhe, Germany) and 4x Laemmli Buffer (Bio-Rad, Hercules, CA, USA), denatured at 95 °C, and run on NuPAGE 4–12% bis-Tris gels (Thermo Fisher Scientific). Proteins were blotted on methanol-activated PVDF Transfer Membranes (Thermo Fisher Scientific) using the wet transfer method with the transfer buffer (Thermo Fisher Scientific) and 20% methanol. Afterward, the membranes were blocked with 5% milk or 3% BSA in 0.1% TBS-T for 1 h at RT and incubated overnight at 4 °C with primary antibodies: GAPDH (catalog no. 2118, Cell Signaling Technology, MA, USA, 1:1000 dilution), LIMK1 (catalog no. 3842, Cell Signaling Technology, 1:1000 dilution), LIMK2 (catalog no. 3845, 1:500 dilution), phospho-Cofilin (catalog no. 3313, Cell Signaling Technology, 1:1000 dilution), Cofilin (catalog no. 5175, Cell Signaling Technology, 1:1000 dilution). Then, the membranes were washed with 0.1% TBS-T and incubated with secondary horseradish-peroxidase (HRP)-conjugated antibody for 2 h (catalog no. 7074, Cell Signaling Technology, 1:3000 dilution). The membranes were washed again with 0.1% TBS-T before they were developed using X-ray films (Fujifilm, Dusseldorf, Germany).

LIMK1 = biological target: T2, LIMK1 (Homo sapiens, UniProt P53667); assay: Western blot of endogenous LIMK1 in HuCCT1 cells; assay type: cell-based; details: HuCCT1, 6 h treatment
T2 construct: host or cells: HEK293T
Experimental: HuCCT1 cell line was cultured in Roswell Park Memorial Institute (RPMI) 1640 medium supplemented with GlutaMAX, 10% fetal bovine serum (FBS), and 1% penicillin/streptomycin. The cell line was maintained in an incubator with 5% CO2 at 37 °C. For the treatment, 3 × 10^5 cells were plated and treated with the compounds and DMSO as the control for 6 h. The cells were then lysed using RIPA buffer (50 mM Tris-HCl pH 7.4, 150 mM NaCl, 1% Triton X-100, 1% NaDOC, 0.1% SDS, 1 mM EDTA), freshly supplemented with protease and phosphatase inhibitor cocktails (Sigma-Aldrich, Darmstadt, Germany). After 1 h incubation on ice, the lysates were centrifuged for 30 min at […], and the protein-containing supernatant was collected. The protein concentrations were determined using Protein Assay Dye Reagent Concentrate (Bradford, Bio-Rad, Hercules, CA, USA) and Pre-Diluted Protein Assay Standards: Bovine Serum Albumin (BSA) Set (Thermo Fisher Scientific, Darmstadt, Germany). Then, equal amounts of protein was mixed with Roti-Load 1 dye (Carl Roth, Karlsruhe, Germany) and 4x Laemmli Buffer (Bio-Rad, Hercules, CA, USA), denatured at 95 °C, and run on NuPAGE 4–12% bis-Tris gels (Thermo Fisher Scientific). Proteins were blotted on methanol-activated PVDF Transfer Membranes (Thermo Fisher Scientific) using the wet transfer method with the transfer buffer (Thermo Fisher Scientific) and 20% methanol. […]

LIMK2 [2] = biological target: T1, LIMK2; assay: NanoBRET cellular target engagement, LIMK2; assay type: cell-based; design: host or cells: HEK293T; details: HEK293T cells, Tracer K10, 2 h; read-out: LIMK2 NanoBRET IC50
Experimental: Gene encoding LIMK1 (Promega, NV3391) and LIMK2 (Promega, NV1531), CRBN (Promega, N2741) proteins cloned in frame with NanoLuc fusion tag at the C-terminus, were transfected into HEK293T cells using FuGENE HD (Promega, E2312) following manufacture’s protocol and proteins were allowed to express for 20 h at 37 °C and 5% CO2. […] The 10 μL of transfected cells after trypsinization and resuspending in Opti-MEM (Life Technologies, 31985070) were dispensed into each well of the 384-well plate (Greiner 781207) at a cell density of 2 × 10^5 cells/mL. For dose–response BRET measurements, compounds at various concentrations, immediately followed by Tracer K10 (Promega, Tracer DB ID: T000008) for LIMK1 and LIMK2, CRBN Tracer (Promega, Tracer DB ID: T000018) for CRBN at an optimum KD concentration chosen from TracerDB (tracerdb.org), were pipetted using an Echo acoustic dispenser (Labcyte). The system was allowed to equilibrate for 2 h at 37 °C and 5% CO2 before BRET measurements. To measure BRET signal, the NanoBRET NanoGlo Substrate (Promega, N1573) was added as per the manufacturer’s protocol, and filtered luminescence was measured on a PHERAstar plate reader (BMG Labtech) equipped with a luminescence filter pair (450 nm BP filter (donor) and 610 nm LP filter (acceptor)). For lysed NanoBRET measurement, 25 nL of Digitonin (0.05 μg/μL) was pipetted to each well using Labcyte, and the plate was incubated for 5 min at 37 °C and 5% CO2. After incubation, the BRET signals were measured by a PHERAstar plate reader following the same procedure as intact NanoBRET measurement. […] The BRET ratios are normalized to both of them in the prism output data file. Competitive displacement data were then normalized to controls and were graphed using GraphPad Prism 9 software employing a normalized 3-parameter curve fit with the following equation: Y = 100/(1 + 10̂(X – logIC50)).

EGFP–LIMK2 = biological target: T3, EGFP–LIMK2 (Homo sapiens, UniProt P53671); assay: EGFP-LIMK2 depletion live-cell assay (Incucyte); assay type: cell-based; details: for EGFP–LIMK2 degradation (in words): live cells, over 72 h
T3 construct: P2A remnant (from EGFP-LIMK2-P2A-mCherry; that residues stay on LIMK2 after self-cleavage is own knowledge) (C); expressed in transfected cells; host or cells: HuCCT1 (lentiviral transduction, doxycycline-inducible pCW57 vector)
Experimental: To enable a more comprehensive and rapid evaluation of the synthesized PROTACs, we generated a stable, doxycycline-inducible HuCCT1 cell line that expressed an N-terminally fused EGFP–LIMK2 protein. […] The degradation activity of the synthesized PROTACs set was screened at five concentrations ranging from 1 nM to 1000 nM over 72 h using live-cell imaging (Figure E).
LIMK2 was cloned into pcDNA5-EGFP-NLS-P2A-mCherry-PTS1 (Addgene plasmid #87803) by replacing the NLS sequence with the LIMK2 sequence. pcDNA5-EGFP-NLS-P2A-mCherry-PTS1 was a gift from Andrea Musacchio. Subsequently, EGFP-[…]-P2A-mCherry was cloned into the lentiviral vector pCW57-MCS1-P2A-MCS2 (Hygro) (Addgene plasmid #80922) to generate pCW57-HygB-EGFP-LIMK2-P2A-mCherry. pCW57-MCS1-P2A-MCS2 (Hygro) was a gift from Adam Karpf.
HEK293T cells (ATCC, CRL-3216) were cultured in Dulbecco’s Modified Eagle’s Medium (DMEM), while HUCCT1 cells (ATCC, CRL-1997) were cultured in RPMI medium supplemented with 10% fetal bovine serum (FBS) and 1% penicillin/streptomycin (P/S) antibiotic mix (all from Sigma-Aldrich, St. Louis, Missouri, USA). Lentiviral particles were produced in HEK293T cells using pCW57-HygB-EGFP-LIMK2-[…]P2A-mCherry, pMD2.G, and psPAX2. HUCCT1 cells were transduced with lentivirus to express LIMK2.
Briefly, the cells were plated and propagated in 6-well plates overnight. The next day, transduction with viruses was performed. Two days later, transduced cells with pCW57-HygB-EGFP-LIMK2-P2A-mCherry plasmids were selected using 100 μg/mL Hygromycin B. After at least three passages, the cells were sorted for the same populations of RFP- and GFP-expressing cells using the SH800S Cell Sorter (Sony Biotechnology, San Jose, CA, USA). Stable pools of cells were maintained in the same medium used for selection.
To assess the turnover of LIMK2, we used the Incucyte S3 or XS5 live-cell imaging system and performed the assay as previously described. , Briefly, 2,000 HUCCT1 cells stably expressing EGFP-LIMK2-P2A-mCherry were seeded per well in a 384-well plate in 50 μL of RPMI medium supplemented with 10% fetal bovine serum (FBS) and 1% penicillin/streptomycin. Cells were incubated for 24 h before treatment. To induce LIMK2 expression, 1 μg/mL of doxycycline (Sigma-Aldrich, D9891–1G) was added at the time of seeding.
After 24 h, 50 μL of medium containing either 0.1% DMSO or the desired concentration of PROTACs was added. Fluorescence in three channels–GFP, RFP, and phase contrast (cell confluence)–was monitored every 2 h for 72 h using the Incucyte S3 or XS5 (Sartorius, Germany). LIMK2 turnover was quantified by calculating the ratio of total fluorescence intensity of RFP to GFP. Each time point represents the average ratio from three technical replicates.

VHL:ELOB:ELOC = VHL:ELOB:ELOC (Homo sapiens, UniProt P40337); assay: SPR VHL binary complex affinity and kinetics; assay type: binding; details: read-out: binary affinity toward VHL
Experimental: (§1) Approximately 1000 RU of biotinylated VHL:ELOB:ELOC was loaded onto a Series S CM5 chip coated with Streptavidin. All experiments were performed at 25 °C. The chip was equilibrated with a running buffer containing 20 mM HEPES, pH 7.4, 150 mM NaCl, 0.5 mM TCEP, 1% BSA, and 0.05% Tween 20.
To assess ternary complex formation, 1 μM of VHL-binding PROTAC was preincubated with a 2-fold molar excess of LIMK1 to promote binary complex formation and minimize the hook effect. The resulting binary complex was injected over the immobilized VHL:ELOB:ELOC surface at a flow rate of 30 μL/min for 60 s, followed by a dissociation phase of 180 s. An increase in resonance signal relative to the binary complex alone was used as an indicator of ternary complex formation. In separate experiments, binary and ternary complex affinities were measured and compared using serial dilutions as described for LIMK1. Additionally, the association rate constant (k a), dissociation rate constant (k d) were determined for the binary complexes.

[3] = biological target: T4, VHL:ELOB:ELOC and LIMK1 kinase domain (Homo sapiens, UniProt P40337+P53667); assay: SPR VHL ternary complex formation with LIMK1; assay type: binding
T4 construct: (330–S637), LIMK1-avi; 6xHis-Z-tag (TEV-cleavable) (N, cleaved yes); made in house; host or cells: LIMK1: insect cells (baculovirus)
Experimental: Surprised by the weak target engagement of VHL-based LIMK PROTACs, we investigated whether they form a stable ternary complex. To address this, we established an SPR-based ternary complex assay using immobilized VHL:ELOB/C complex on an SPR chip. In this assay format, the binary complex was formed by preincubating PROTACs with a 2-fold excess of purified LIMK1 kinase domain to avoid the hook effect. The binary complex was passed over an SPR surface immobilized with the VHL:ELOB/C complex. Ternary complex formation was detected as a large signal increase, as expected for the large molecular weight increase upon binding of the LIMK1 PROTAC complex (Figure C).
as §1
To assess ternary complex formation, 1 μM of VHL-binding PROTAC was preincubated with a 2-fold molar excess of LIMK1 to promote binary complex formation and minimize the hook effect. […] In separate experiments, binary and ternary complex affinities were measured and compared using serial dilutions as described for LIMK1. Additionally, the association rate constant (k a), dissociation rate constant (k d) were determined for the binary complexes.

HEK293T cells = assay: CellTiter-Glo 2.0 cell viability assay; assay type: cell-based, human; details: 24-h treatment, 25 nM to 20 µM
Experimental: The effects of the PROTAC on cell viability were determined using the CellTiter-Glo 2.0 Cell Viability Assay (Promega, G9241) following the manufacturer’s protocol. […] 40 μL of assay reagent was added and incubated for 10 min at RT. Filtered luminescence was measured using a PHERAstar plate reader (BMG Labtech), and data were analyzed using GraphPad Prism 9.

T1 sequence (P53671 whole entry): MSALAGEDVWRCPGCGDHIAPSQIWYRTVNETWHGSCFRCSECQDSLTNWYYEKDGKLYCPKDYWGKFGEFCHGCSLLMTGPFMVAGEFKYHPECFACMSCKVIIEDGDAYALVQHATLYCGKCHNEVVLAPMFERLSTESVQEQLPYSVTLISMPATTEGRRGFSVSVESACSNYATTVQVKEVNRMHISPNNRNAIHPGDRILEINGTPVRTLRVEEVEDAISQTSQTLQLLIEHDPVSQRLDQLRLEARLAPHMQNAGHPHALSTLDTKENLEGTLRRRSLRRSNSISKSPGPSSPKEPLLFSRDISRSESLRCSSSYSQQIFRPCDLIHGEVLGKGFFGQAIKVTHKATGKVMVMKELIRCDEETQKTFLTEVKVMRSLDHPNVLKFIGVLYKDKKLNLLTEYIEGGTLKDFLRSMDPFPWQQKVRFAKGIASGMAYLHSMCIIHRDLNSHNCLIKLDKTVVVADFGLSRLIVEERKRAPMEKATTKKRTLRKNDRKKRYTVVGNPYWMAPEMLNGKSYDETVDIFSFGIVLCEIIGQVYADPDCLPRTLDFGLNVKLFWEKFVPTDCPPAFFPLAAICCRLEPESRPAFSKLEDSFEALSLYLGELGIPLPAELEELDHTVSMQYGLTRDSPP
T3 sequence (P53671 whole entry): as above
Sequence of VHL:ELOB:ELOC (P40337 54-213 limits assumed, species assumed): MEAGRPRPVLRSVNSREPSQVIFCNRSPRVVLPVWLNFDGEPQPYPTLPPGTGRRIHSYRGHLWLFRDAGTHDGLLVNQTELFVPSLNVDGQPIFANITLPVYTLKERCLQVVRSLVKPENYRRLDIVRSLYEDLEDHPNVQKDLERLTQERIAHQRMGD
Sequence of VHL:ELOB:ELOC (Q15370 whole entry partner, species assumed): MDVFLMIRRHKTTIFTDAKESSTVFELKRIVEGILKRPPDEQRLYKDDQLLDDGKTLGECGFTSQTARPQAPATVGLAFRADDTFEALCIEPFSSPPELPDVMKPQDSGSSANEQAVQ
Sequence of VHL:ELOB:ELOC (Q15369 17-112 partner limits assumed, species assumed): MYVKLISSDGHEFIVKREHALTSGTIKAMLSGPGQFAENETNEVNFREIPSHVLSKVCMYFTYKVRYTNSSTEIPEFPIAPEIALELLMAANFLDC
T4 sequence (P40337 54-213 limits assumed, species assumed): as the sequence (P40337 54-213 limits assumed, species assumed) above
T4 sequence (Q15370 whole entry partner, species assumed, the tested form may be a part): as the sequence (Q15370 whole entry partner, species assumed) above
T4 sequence (Q15369 17-112 partner limits assumed, species assumed): as the sequence (Q15369 17-112 partner limits assumed, species assumed) above
T4 sequence (P53667 330-637 limits assumed, species assumed): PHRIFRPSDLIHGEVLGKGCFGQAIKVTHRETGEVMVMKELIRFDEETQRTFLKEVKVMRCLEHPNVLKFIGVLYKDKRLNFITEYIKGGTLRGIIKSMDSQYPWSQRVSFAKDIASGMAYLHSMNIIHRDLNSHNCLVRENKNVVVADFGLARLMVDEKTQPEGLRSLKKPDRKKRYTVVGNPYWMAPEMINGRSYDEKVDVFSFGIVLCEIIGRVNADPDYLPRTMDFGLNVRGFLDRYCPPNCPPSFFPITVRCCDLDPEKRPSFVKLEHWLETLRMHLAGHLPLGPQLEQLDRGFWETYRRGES
T2 sequence (P53667 whole entry): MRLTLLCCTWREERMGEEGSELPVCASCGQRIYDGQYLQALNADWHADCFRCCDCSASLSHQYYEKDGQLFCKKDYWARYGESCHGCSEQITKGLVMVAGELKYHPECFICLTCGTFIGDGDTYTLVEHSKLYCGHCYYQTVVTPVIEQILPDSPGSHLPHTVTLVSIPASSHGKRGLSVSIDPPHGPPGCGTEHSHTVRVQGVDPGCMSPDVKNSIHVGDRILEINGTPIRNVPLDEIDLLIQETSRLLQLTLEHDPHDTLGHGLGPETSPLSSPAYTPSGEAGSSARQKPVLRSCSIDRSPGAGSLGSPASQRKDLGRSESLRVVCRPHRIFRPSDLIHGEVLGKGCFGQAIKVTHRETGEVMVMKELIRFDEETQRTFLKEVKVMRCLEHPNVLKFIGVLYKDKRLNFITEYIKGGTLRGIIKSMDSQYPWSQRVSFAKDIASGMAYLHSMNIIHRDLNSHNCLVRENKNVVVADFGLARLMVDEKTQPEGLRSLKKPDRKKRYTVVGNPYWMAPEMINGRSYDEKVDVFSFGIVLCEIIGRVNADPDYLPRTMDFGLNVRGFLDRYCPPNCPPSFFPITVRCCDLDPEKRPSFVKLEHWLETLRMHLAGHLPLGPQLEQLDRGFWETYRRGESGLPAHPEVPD

- LIMK2 degradation (Western blot) (LIMK2 [1]): did not degrade either isoform
- LIMK1 degradation (Western blot) (LIMK1): did not degrade either isoform
Structure (SMILES): O=C1CCC(N2C(=O)c3cccc(OCc4cn(CC(=O)Nc5ncc(-c6cc(C(F)F)nn6-c6c(Cl)cccc6Cl)s5)nn4)c3C2=O)C(=O)N1 (stereo not drawn) [21a]

- IC50 (LIMK2 [2]): 80 nM
- DC50 (EGFP–LIMK2; HuCCT1 EGFP–LIMK2 cells, live-cell kinetic assay over 72 h, read-out: DC50 (LIMK2 degradation)): 13.7 nM
- potency enhancement (DC50) relative to 21b (EGFP–LIMK2; vs 21b): 2.4 fold
Structure (SMILES): Cc1c(OCc2cn(CCCCCC(=O)Nc3ncc(-c4cc(C(F)F)nn4-c4c(Cl)cccc4Cl)s3)nn2)cccc1N1CCC(=O)NC1=O [22c]

- LIMK2 degradation (Western blot) (LIMK2 [1]): modest LIMK2 degradation at 1 μM
- EGFP–LIMK2 degradation (in words) (EGFP–LIMK2): moderate LIMK2 degradation
Structure (SMILES): Cc1ncc(-c2ccc(CNC(=O)[C@@H]3C[C@@H](O)CN3C(=O)[C@@H](NC(=O)c3cn(CCCCCC(=O)Nc4ncc(-c5cc(C(F)F)nn5-c5c(Cl)cccc5Cl)s4)nn3)C(C)(C)C)cc2)s1 [23c]

- Kd (VHL:ELOB:ELOC): > 1000 nM
Structure (SMILES): Cc1ncc(-c2ccc(CNC(=O)[C@@H]3C[C@@H](O)CN3C(=O)[C@@H](NC(=O)CCc3cn(CCCCCC(=O)Nc4ncc(-c5cc(C(F)F)nn5-c5c(Cl)cccc5Cl)s4)nn3)C(C)(C)C)cc2)s1 [23f]

- higher affinity upon formation of ternary complex vs binary [3]: 10 fold
- Kd (VHL:ELOB:ELOC): > 1000 nM
Structure (SMILES): Cc1ncc(-c2ccc(CNC(=O)[C@@H]3C[C@@H](O)CN3C(=O)[C@@H](NC(=O)CCCc3cn(CCCCC(=O)Nc4ncc(-c5cc(C(F)F)nn5-c5c(Cl)cccc5Cl)s4)nn3)C(C)(C)C)cc2)s1 [23h]

- higher affinity upon formation of ternary complex vs binary [3]: 10 fold
- Kd (VHL:ELOB:ELOC): > 1000 nM
Structure (SMILES): Cc1ncc(-c2ccc(CNC(=O)[C@@H]3C[C@@H](O)CN3C(=O)[C@@H](NC(=O)CCCc3cn(CCCCCC(=O)Nc4ncc(-c5cc(C(F)F)nn5-c5c(Cl)cccc5Cl)s4)nn3)C(C)(C)C)cc2)s1 [23i]

- LIMK2 degradation (Western blot) (LIMK2 [1]): did not induce any LIMK2 degradation
- EGFP–LIMK2 degradation (in words) (EGFP–LIMK2): no degradation of LIMK2
Structure (SMILES): Cc1c(OCc2cn(CCCCC(=O)Nc3ncc(-c4cc(C(F)F)nn4-c4c(Cl)cccc4Cl)s3)nn2)cccc1N1CCC(=O)N(C)C1=O [THNAN69-NC]
- cytotoxic effects (HEK293T cells): no cytotoxic effects
